The numbers were not newly measured in article PMC2000878, “Module structure of interphotoreceptor retinoid-binding protein (IRBP) may provide bases for its complex role in the visual cycle – structure/function study of Xenopus IRBP” (BMC Biochemistry, 2007), which cites them from elsewhere.

Usually Kd stands for the concentration at which binding is half-saturated.

The data set concerns the target T1, Xenopus IRBP Module 2 (Xenopus laevis, UniProt Q7SZI7).
T1 construct: cDNAs corresponding to the full-length IRBP, module 1, and module 2 were expressed in pThioHis; modules 3 and 4 were expressed in pTrxFus; made in house; host or cells: E. coli Top10 (pThioHis)
T1 sequence (Q7SZI7 319-617 limits assumed): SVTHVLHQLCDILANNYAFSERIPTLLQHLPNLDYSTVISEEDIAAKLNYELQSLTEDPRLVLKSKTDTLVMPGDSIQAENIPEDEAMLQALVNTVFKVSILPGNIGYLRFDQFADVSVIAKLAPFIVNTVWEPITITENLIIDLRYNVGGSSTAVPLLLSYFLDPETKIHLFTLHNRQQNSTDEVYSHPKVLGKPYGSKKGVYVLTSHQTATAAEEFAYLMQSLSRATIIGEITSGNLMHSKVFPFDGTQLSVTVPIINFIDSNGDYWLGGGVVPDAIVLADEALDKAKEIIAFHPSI
Also on record: method as in Loew et al. Exp Eye Res. 2001, 73:257–264. Particulars: ref Loew et al. Exp Eye Res. 2001, 73:257–264, cited from earlier work.

Read-outs that look alike come from different tables or passages of the source.

Regarding `CC1=C(/C=C/C(C)=C/C=C/C(C)=C/CO)C(C)(C)CCC1` [all-trans retinol], the “Binding sites (N), Enhancement” value (all-trans retinol fluorescence enhancement, ex 330 nm, em 480 nm) is 1.57 ± 0.04. Besides, the Kd is 84 ± 22 nM (all-trans retinol fluorescence enhancement, ex 330 nm, em 480 nm, read-out: Kd, Enhancement) and 140 ± 40 nM (quenching by all-trans retinol, ex 280 nm, em 340 nm, read-out: Kd, Quenching). Moreover, the “Binding sites (N), Quenching” value (quenching by all-trans retinol, ex 280 nm, em 340 nm) was 1.31 ± 0.06.
